Experimental data from patent publication US12655160B2, “KRAS G12D inhibitors” (Mirati Therapeutics, Inc., priority 2020, dated 2026).

Assays:
[1] = system: KRas G12D-mediated Phosphorylation of ERK; assay: Inhibition of KRas G12D-mediated Phosphorylation of ERK in AGS cells; format: cell-based; settings: Homo sapiens; AGS cells expressing G12D, 3 hours, phospho-ERK signal normalized to GAPDH; read-out: IC50
Description: AGS cells (ATCC CRL-1739) expressing G12D were grown in DMEM medium supplemented with 10% fetal bovine serum, 10 mM HEPES, and Penicillin/Streptomycin. Cells were plated in tissue culture treated 96 well plates at a density of 40,000 cells/well and allowed to attach for 12-14 hours. Diluted compounds were then added in a final concentration of 0.5% DMSO. After 3 hours, the medium was removed, 150 μl of 4.0% formaldehyde was added and the plates incubated at room temperature for 20 minutes. The plates were washed with PBS, and permeabilized with 150 μL of ice cold 100% methanol for 10 minutes. Non-specific antibody binding to the plates was blocked using 100 μL Licor blocking buffer (Li-Cor Biotechnology, Lincoln NE) for 1 hour at room temperature.
The amount of phospho-ERK was determined using an antibody specific for the phosphorylated form of ERK and compared to the amount of GAPDH. Primary antibodies used for the detection were added as follows: Phospho-ERK(Cell Signaling cs-9101) diluted 1:500 and GAPDH (Millipore MAB374) diluted 1:5000 in Licor block+0.05% Tween 20. The plates were incubated for 2 hours at room temperature. The plates were washed with PBS+0.05% Tween 20.
Secondary antibodies used to visualize primary antibodies were added as follows: Anti-rabbit-680 diluted 1:1000 and Anti-mouse-800 diluted 1:1000 both in Licor block+0.05% Tween20, and were incubated for 1 hour at room temperature. The plates were washed with PBS+0.05% Tween 20. A 100 μl aliquot of PBS was added to each well and the plates were read on a Li-Cor Odyssey CLX plate reader.
The phospho-ERK(Thr202/Tyr204 signal was normalized to the GAPDH signal for each well and percent of DMSO control values were calculated. IC50 values were generated using a 4-parameter fit of the dose response curve

[2] = molecular target: KRas G12D (Homo sapiens, UniProt P01116, G12D); assay: KRas G12D Binding Assay (TR-FRET displacement of labeled tracer); set-up: corresponding to amino acids 1:169, produced at Array BioPharma Inc; biotin (biotinylated); settings: TR-FRET displacement of Cy5 labelled tracer, Biotinylated GDP-loaded KRAS G12D (amino acids 1:169), 60 minute incubation at 22° C.
Description: This Example illustrates that exemplary compounds of the present invention bind to KRas G12D and are capable of displacing a labeled tracer ligand occupying the KRas G12D binding site. The ability of a compound to bind to KRAS G12D was measured using a TR-FRET displacement assay. Biotinylated GDP-loaded recombinant human KRAS G12D (corresponding to amino acids 1:169, produced at Array BioPharma Inc.) was incubated with a custom-made Cy5 labelled tracer, europium labelled streptavidin and compound (2% DMSO final) in buffer (50 mM HEPES [pH 7.5], 5 mM MgCl2, 0.005% Tween-20 & 1 mM DTT). After a 60 minute incubation at 22° C., the reaction was measured using a PerkinElmer EnVision multimode plate reader via TR-FRET dual wavelength detection, and the percent of control (POC) calculated using a ratiometric emission factor. […] The POC values were fit to a 4-parameter logistic curve and the IC50 value was determined as the concentration where the curve crosses 50 POC.

KRas G12D, sequence (P01116 1-169 isoform P01116-2 G12D): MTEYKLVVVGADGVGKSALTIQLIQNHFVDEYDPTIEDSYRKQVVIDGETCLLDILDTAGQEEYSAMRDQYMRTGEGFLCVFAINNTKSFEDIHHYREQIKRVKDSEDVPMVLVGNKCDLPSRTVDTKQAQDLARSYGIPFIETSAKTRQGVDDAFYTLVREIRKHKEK

Structure (SMILES) | IC50 [1] | IC50 [2]
CCc1cccc2cc(O)cc(-c3ncc4c(NCC5(N(C)C)CCC5)nc(OC[C@@]56CCCN5[C@H](COC(=O)NC)CC6)nc4c3F)c12 (racemic) [Example 44] | 220 nM | 0.7 nM
CN[C@H]1C[C@@H](Nc2nc(OCC34CCCN3CCC4)nc3c(F)c(-c4cc(O)cc5ccccc45)ncc23)C1 [Example 17, 4-(8-fluoro-4-(((1s,3s)-3-(methylamino)cyclobutyl)amino)-2-((tetrahydro-1H-pyrrolizin-7a(5H)-yl)methoxy)pyrido[4,3-d]pyrimidin-7-yl)naphthalen-2-ol bis(2,2,2-trifluoroacetate)] | > 16700 nM | 80.9 nM
Oc1cc(-c2ncc3c(NC4CNC4)nc(OCC45CCCN4CCC5)nc3c2F)c2ccccc2c1 [Example 18, 4-(4-(azetidin-3-ylamino)-8-fluoro-2-((tetrahydro-1H-pyrrolizin-7a(5H)-yl)methoxy)pyrido[4,3-d]pyrimidin-7-yl)naphthalen-2-ol] | > 16700 nM | 46.5 nM
C#Cc1cccc2cccc(-c3ncc4c(NCC5(N(C)C)CCC5)nc(OC[C@@]56CCCN5C[C@H](F)C6)nc4c3F)c12 [Example 20, N-((1-(dimethylamino)cyclobutyl)methyl)-7-(8-ethynylnaphthalen-1-yl)-8-fluoro-2-(((2R,7aS)-2-fluorotetrahydro-1H-pyrrolizin-7a(5H)-yl)methoxy)pyrido[4,3-d]pyrimidin-4-amine bis(2,2,2-trifluoroacetate)] | 2510 nM | 22 nM
CCc1cccc2cccc(-c3ncc4c(NCC5(N(C)C)CCC5)nc(OC[C@@]56CCCN5C[C@H](F)C6)nc4c3F)c12 [Example 21, N-((1-(dimethylamino)cyclobutyl)methyl)-7-(8-ethylnaphthalen-1-yl)-8-fluoro-2-(((2R,7aS)-2-fluorotetrahydro-1H-pyrrolizin-7a(5H)-yl)methoxy)pyrido[4,3-d]pyrimidin-4-amine] | > 16700 nM | 59.2 nM
NC1(CNc2nc(OC[C@@]34CCCN3C[C@H](F)C4)nc3c(F)c(-c4cc(O)cc5ccccc45)ncc23)CCC1 [Example 29, 4-(4-(((1-aminocyclobutyl)methyl)amino)-8-fluoro-2-(((2R,7aS)-2-fluorotetrahydro-1H-pyrrolizin-7a(5H)-yl)methoxy)pyrido[4,3-d]pyrimidin-7-yl)naphthalen-2-ol bis(2,2,2-trifluoroacetate)] | 1560 nM | 62.8 nM
CCc1cccc2cc(O)cc(-c3ncc4c(NCC5(N(C)C)CCC5)nc(OC[C@]56CCCN5[C@@H](COC(=O)N(C)C)CC6)nc4c3F)c12 [Example 43, ((3R,7aR)-7a-(((4-(((1-(dimethylamino)cyclobutyl)methyl)amino)-7-(8-ethyl-3-hydroxynaphthalen-1-yl)-8-fluoropyrido[4,3-d]pyrimidin-2-yl)oxy)methyl)hexahydro-1H-pyrrolizin-3-yl)methyl dimethylcarbamate] | 53.5 nM | 1.1 nM
C#Cc1c(F)ccc2cc(O)cc(-c3ncc4c(NCC5(N(C)C)CCC5)nc(OC[C@]56CCCN5[C@@H](COC(=O)N(C)C)CC6)nc4c3F)c12 [Example 45, ((3R,7aR)-7a-(((4-(((1-(dimethylamino)cyclobutyl)methyl)amino)-7-(8-ethynyl-7-fluoro-3-hydroxynaphthalen-1-yl)-8-fluoropyrido[4,3-d]pyrimidin-2-yl)oxy)methyl)hexahydro-1H-pyrrolizin-3-yl)methyl dimethylcarbamate] | 38.3 nM | 0.4 nM
CCc1c(F)ccc2cc(O)cc(-c3ncc4c(NCC5(N(C)C)CCC5)nc(OC[C@]56CCCN5[C@@H](COC(=O)N(C)C)CC6)nc4c3F)c12 [Example 46, ((3R,7aR)-7a-(((4-(((1-(dimethylamino)cyclobutyl)methyl)amino)-7-(8-ethyl-7-fluoro-3-hydroxynaphthalen-1-yl)-8-fluoropyrido[4,3-d]pyrimidin-2-yl)oxy)methyl)hexahydro-1H-pyrrolizin-3-yl)methyl dimethylcarbamate] | 38.7 nM | 0.7 nM
